{"source": "ChEMBL document CHEMBL2016464", "about": "“Identification of Inhibitors of NOD1-Induced Nuclear Factor-κB Activation” (ACS Med Chem Lett, 2011)", "key": {"[1]": {"assay": "Plasma concentration in mouse at 15 mg/kg, ip at 20 mins"}, "[2]": {"molecular_target": "Serine/threonine-protein kinase RIO2 (Homo sapiens) (UniProt Q9BVS4)", "sequence (Q9BVS4 whole entry, looked up)": "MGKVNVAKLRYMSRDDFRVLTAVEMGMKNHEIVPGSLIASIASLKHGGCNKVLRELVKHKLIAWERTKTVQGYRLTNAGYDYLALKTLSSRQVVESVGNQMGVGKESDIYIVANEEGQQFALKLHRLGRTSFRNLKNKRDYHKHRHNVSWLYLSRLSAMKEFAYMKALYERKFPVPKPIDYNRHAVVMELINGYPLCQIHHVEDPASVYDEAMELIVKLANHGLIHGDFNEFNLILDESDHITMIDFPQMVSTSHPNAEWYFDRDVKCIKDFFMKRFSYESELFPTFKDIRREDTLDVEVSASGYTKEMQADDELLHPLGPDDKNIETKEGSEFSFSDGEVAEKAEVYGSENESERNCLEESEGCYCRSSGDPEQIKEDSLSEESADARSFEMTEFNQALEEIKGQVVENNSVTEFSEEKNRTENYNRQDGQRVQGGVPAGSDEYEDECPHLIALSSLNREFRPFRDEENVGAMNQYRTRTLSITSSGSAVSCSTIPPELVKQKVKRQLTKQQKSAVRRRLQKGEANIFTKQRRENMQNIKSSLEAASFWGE", "assay": "Inhibition of RIOK2 at 10 uM relative to control"}, "[3]": {"molecular_target": "T1, Aurora kinase A (Homo sapiens) (UniProt O14965)", "T1 sequence (whole entry)": "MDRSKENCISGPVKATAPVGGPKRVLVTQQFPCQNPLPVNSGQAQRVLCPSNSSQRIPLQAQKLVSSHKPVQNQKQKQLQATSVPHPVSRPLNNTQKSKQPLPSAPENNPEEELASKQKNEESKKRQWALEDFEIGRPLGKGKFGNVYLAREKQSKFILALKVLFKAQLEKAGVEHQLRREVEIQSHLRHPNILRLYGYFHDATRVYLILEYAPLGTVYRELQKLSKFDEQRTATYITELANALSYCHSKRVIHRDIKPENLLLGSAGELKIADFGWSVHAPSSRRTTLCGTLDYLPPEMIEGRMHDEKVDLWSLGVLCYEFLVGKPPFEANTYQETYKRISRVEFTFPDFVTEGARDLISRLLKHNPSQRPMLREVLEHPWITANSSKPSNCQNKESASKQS", "assay": "Inhibition of AURKA at 10 uM relative to control"}, "[4]": {"tested_on": "HEK-293T", "assay": "Cytotoxicity against HEK293T cells at 20 uM by alamar blue assay", "type": "cell-based", "conditions": "human"}, "[5]": {"molecular_target": "5-hydroxytryptamine receptor 6 (Homo sapiens) (UniProt P50406)", "sequence (P50406 whole entry)": "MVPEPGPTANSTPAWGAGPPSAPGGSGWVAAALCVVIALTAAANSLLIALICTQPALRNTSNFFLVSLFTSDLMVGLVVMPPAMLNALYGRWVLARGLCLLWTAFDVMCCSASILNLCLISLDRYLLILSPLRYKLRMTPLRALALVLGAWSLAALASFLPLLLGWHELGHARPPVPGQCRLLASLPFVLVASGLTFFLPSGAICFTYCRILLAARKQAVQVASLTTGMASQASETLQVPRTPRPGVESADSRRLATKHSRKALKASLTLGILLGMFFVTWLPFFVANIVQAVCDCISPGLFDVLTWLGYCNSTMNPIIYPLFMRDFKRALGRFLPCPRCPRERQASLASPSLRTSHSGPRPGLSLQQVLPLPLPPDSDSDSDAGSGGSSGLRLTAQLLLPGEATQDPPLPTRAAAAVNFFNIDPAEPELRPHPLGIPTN", "assay": "Inhibition of 5HT6 receptor at 10 uM"}, "[6]": {"assay": "Plasma concentration in mouse at 30 mg/kg, ip at 120 mins"}, "[7]": {"assay": "Metabolic stability in human plasma assessed as compound remaining at 1 uM after 180 mins", "type": "ADME, cell-free", "conditions": "read-out: Stability"}, "[8]": {"molecular_target": "T2, Nucleotide-binding oligomerization domain-containing protein 1 (Homo sapiens) (UniProt Q9Y239)", "T2 sequence (whole entry)": "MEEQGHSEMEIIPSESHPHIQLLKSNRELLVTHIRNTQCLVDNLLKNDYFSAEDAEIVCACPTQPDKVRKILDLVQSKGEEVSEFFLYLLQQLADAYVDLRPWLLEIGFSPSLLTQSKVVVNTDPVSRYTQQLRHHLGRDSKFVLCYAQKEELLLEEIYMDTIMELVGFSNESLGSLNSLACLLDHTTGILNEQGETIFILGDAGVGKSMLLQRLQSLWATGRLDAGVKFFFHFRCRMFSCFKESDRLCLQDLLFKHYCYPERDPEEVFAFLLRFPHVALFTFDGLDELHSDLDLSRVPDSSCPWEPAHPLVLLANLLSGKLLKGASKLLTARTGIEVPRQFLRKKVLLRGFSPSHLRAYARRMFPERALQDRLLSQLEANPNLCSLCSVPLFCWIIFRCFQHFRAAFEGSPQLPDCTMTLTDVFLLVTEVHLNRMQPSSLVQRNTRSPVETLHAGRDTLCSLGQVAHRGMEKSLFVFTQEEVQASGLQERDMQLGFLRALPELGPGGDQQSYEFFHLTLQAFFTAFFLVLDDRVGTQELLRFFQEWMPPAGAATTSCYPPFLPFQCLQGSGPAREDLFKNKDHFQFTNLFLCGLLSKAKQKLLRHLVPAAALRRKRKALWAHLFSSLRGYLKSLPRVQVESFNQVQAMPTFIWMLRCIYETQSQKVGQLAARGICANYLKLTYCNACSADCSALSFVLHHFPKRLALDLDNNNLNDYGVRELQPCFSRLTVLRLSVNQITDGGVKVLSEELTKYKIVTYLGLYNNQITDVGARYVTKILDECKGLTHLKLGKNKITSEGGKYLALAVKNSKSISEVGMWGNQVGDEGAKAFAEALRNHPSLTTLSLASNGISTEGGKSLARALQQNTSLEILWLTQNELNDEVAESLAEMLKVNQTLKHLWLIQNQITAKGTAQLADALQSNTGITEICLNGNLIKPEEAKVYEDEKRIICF", "conditions": "MCF7, 0.25 to 5 uM"}, "[9]": {"assay": "Metabolic stability in human liver microsomes assessed as compound remaining at 1 uM preincubated for 10 mins measured after 60 mins", "type": "ADME, Microsome", "conditions": "read-out: Stability"}, "[10]": {"tested_on": "MCF7", "assay": "Inhibition of TNFalpha-induced IL8 secretion in human MCF7 cells at 0.25 to 5 uM by ELISA", "type": "functional, cell-based"}, "[11]": {"molecular_target": "5-hydroxytryptamine receptor 2B (Homo sapiens) (UniProt P41595)", "sequence (P41595 whole entry)": "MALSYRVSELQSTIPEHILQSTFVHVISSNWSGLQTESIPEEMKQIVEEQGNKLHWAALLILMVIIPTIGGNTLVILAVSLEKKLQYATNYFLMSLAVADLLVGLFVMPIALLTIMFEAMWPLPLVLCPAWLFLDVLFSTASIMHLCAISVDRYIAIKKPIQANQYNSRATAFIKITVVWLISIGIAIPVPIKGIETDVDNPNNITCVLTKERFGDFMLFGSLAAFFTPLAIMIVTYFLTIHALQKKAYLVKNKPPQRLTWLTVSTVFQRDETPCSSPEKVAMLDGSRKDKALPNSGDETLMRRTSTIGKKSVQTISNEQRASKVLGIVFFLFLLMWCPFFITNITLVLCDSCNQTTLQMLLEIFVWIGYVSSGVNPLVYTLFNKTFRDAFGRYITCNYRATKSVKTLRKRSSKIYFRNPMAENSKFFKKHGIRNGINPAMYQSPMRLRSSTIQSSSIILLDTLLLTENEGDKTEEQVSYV", "assay": "Inhibition of 5HT2B receptor at 10 uM"}, "[12]": {"molecular_target": "Histamine H1 receptor (Homo sapiens) (UniProt P35367)", "sequence (P35367 whole entry)": "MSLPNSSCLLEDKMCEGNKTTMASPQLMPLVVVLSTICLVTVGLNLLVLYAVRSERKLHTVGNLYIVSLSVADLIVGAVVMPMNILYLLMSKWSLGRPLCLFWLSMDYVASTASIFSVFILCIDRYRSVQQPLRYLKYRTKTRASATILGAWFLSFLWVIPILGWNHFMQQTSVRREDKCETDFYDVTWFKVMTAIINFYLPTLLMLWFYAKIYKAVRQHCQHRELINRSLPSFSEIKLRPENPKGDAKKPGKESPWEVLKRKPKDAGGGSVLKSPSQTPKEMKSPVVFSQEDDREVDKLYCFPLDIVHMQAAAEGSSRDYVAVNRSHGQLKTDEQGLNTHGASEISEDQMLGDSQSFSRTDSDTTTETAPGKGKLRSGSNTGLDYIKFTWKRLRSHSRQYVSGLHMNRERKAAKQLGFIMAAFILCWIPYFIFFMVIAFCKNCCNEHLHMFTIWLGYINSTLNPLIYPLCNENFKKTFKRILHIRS", "assay": "Inhibition of H1 histamine receptor at 10 uM"}, "[13]": {"assay": "Plasma protein binding in human at 1 uM after 4 hrs", "type": "ADME, cell-free", "conditions": "read-out: PPB (converted)"}, "[14]": {"molecular_target": "Receptor-type tyrosine-protein kinase FLT3 (Homo sapiens) (UniProt P36888)", "sequence (P36888 whole entry)": "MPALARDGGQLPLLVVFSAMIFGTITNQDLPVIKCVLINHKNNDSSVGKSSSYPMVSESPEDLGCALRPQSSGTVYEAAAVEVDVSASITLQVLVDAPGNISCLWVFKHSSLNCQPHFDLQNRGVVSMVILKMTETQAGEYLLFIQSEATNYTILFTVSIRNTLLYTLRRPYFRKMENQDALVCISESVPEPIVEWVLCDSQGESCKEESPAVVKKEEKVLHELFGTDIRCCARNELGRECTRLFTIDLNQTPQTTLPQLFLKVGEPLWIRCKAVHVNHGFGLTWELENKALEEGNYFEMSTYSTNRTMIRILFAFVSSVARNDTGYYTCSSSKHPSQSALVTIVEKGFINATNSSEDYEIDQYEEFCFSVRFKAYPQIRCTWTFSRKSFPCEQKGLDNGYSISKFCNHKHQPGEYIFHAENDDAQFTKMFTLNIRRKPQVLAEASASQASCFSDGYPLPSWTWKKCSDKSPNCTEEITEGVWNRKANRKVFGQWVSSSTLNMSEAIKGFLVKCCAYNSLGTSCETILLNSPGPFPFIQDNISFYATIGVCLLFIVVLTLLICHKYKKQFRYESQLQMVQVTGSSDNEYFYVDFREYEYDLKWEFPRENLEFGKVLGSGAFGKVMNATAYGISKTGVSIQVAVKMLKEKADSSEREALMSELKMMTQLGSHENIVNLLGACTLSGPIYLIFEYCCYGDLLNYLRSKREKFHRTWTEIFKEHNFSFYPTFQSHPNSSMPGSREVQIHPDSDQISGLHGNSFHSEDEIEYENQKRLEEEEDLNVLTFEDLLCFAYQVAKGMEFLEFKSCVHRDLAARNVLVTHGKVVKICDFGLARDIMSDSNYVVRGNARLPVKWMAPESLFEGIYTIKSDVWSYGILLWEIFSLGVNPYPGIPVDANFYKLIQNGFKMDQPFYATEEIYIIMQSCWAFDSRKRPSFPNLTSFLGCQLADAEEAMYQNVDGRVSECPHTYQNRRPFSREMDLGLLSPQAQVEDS", "assay": "Inhibition of CFLT3 at 10 uM relative to control"}, "[15]": {"tested_on": "HEK-293T", "assay": "Inhibition of PMA/ionomycin-induced NFkappaB activation at 0.25 to 25 uM in HEK293T cells by luciferase reporter gene assay", "type": "cell-based", "conditions": "Homo sapiens"}, "[16]": {"assay": "Plasma protein binding in human at 10 uM after 4 hrs", "type": "ADME, cell-free", "conditions": "read-out: PPB (converted)"}, "[17]": {"molecular_target": "Nucleotide-binding oligomerization domain-containing protein 2 (Homo sapiens, UniProt Q9HC29)", "sequence (Q9HC29 whole entry, the tested form may be a part)": "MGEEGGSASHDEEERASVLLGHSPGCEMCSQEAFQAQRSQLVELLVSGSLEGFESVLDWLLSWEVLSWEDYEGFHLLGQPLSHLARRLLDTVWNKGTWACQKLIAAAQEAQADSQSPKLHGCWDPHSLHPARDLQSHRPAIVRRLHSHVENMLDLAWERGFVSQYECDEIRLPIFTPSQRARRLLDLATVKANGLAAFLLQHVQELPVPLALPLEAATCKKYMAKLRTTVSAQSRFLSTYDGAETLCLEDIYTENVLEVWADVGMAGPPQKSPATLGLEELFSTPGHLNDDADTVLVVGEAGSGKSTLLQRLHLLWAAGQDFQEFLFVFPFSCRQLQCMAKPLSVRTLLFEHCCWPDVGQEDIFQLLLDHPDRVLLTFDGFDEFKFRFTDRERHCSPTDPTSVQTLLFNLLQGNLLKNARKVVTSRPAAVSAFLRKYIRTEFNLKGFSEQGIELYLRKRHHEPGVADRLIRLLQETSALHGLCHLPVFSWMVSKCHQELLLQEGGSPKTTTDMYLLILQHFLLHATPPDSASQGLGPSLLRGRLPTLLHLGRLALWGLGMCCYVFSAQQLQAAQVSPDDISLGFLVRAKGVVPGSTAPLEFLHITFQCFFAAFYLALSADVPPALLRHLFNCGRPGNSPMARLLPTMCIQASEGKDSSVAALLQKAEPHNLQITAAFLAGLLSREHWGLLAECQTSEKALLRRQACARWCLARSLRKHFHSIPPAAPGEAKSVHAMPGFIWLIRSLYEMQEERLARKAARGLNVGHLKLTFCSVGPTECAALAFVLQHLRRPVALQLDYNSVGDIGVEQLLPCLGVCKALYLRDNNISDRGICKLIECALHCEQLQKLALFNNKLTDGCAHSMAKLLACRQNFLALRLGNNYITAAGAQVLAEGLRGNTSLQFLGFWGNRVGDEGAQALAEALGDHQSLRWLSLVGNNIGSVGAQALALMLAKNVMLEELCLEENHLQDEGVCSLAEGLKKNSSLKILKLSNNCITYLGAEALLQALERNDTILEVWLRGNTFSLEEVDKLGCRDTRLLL", "assay": "Inhibition of NOD-2 in human MCF7 cells assessed as inhibition of MDP-induced IL8 secretion at 0.25 to 5 uM by ELISA", "type": "cell-based"}, "[18]": {"assay": "Plasma protein binding in mouse at 10 uM after 4 hrs", "type": "ADME, cell-free", "conditions": "read-out: PPB (converted)"}, "[19]": {"assay": "Cytotoxicity against human Fa2N-4 cells after 24 hrs by ATP-lite assay", "type": "cell-based", "conditions": "read-out: LD50"}, "[20]": {"assay": "Cytotoxicity against human NCI60 cells", "type": "cell-based"}, "[21]": {"assay": "cells", "conditions": "Homo sapiens, HEK-293T, 14 h", "description": "Inhibition of TNFalpha-induced NFkappaB activation in HEK293T cells after 14 hrs by luciferase reporter gene assay"}, "[22]": {"assay": "Plasma concentration in mouse at 15 mg/kg, ip at 120 mins"}, "[23]": {"molecular_target": "T3, Aurora kinase C (Homo sapiens) (UniProt Q9UQB9)", "T3 sequence (whole entry)": "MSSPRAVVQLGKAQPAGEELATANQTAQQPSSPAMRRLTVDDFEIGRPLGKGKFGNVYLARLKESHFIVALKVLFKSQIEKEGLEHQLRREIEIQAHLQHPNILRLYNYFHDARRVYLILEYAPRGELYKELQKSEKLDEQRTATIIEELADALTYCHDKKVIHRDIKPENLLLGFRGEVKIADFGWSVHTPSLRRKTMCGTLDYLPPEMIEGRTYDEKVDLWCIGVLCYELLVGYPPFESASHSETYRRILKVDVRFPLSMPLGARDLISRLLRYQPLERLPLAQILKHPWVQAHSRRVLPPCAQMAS", "assay": "Inhibition of AURKC at 10 uM relative to control"}, "[24]": {"assay": "Metabolic stability in mouse plasma assessed as compound remaining at 1 uM after 180 mins", "type": "ADME, cell-free", "conditions": "read-out: Stability"}, "[25]": {"assay": "Plasma concentration in mouse at 30 mg/kg, ip at 20 mins"}, "[26]": {"assay": "Metabolic stability in mouse liver microsomes assessed as compound remaining at 1 uM preincubated for 10 mins measured after 60 mins", "type": "ADME, Microsome", "conditions": "read-out: Stability"}, "[27]": {"tested_on": "HEK-293T", "assay": "Inhibition of doxorubicin-induced NFkappaB activation at 0.25 to 25 uM in HEK293T cells by luciferase reporter gene assay", "type": "cell-based", "conditions": "Homo sapiens"}, "[28]": {"assay": "Plasma protein binding in mouse at 1 uM after 4 hrs", "type": "ADME, cell-free", "conditions": "read-out: PPB (converted)"}, "[29]": {"molecular_target": "Aurora kinase B (Homo sapiens) (UniProt Q96GD4)", "sequence (Q96GD4 whole entry)": "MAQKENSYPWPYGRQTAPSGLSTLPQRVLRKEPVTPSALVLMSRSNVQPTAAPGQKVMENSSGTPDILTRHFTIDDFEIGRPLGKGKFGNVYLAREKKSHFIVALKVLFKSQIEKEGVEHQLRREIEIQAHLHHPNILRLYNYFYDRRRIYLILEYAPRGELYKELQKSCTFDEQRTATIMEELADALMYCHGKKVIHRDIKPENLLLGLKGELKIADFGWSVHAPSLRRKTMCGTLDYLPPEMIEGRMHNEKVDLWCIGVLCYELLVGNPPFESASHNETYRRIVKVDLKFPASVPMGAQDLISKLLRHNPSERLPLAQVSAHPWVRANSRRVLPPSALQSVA", "assay": "Inhibition of AURKB at 10 uM relative to control"}}, "note": "The source made the active and inactive calls. No cut-off for these calls is given here."}
{"smiles": "Cc1ccc(S(=O)(=O)n2c(N)nc3ccccc32)cc1", "values": [{"measurement": "concentration at 20 min", "setting": "[1]", "value": 1200, "unit": "ng/mL"}, {"measurement": "inhibition", "setting": "[2]", "value": 6, "unit": "%"}, {"measurement": "inhibition", "setting": "[3]", "value": "inactive"}, {"measurement": "Activity", "setting": "[4]", "value": 0, "unit": "%"}, {"measurement": "inhibition", "setting": "[5]", "value": 92, "unit": "%"}, {"measurement": "concentration at 2 h", "setting": "[6]", "value": "< 500", "unit": "ng/mL"}, {"measurement": "remaining at 3 h, 1 µM", "setting": "[7]", "value": 100, "unit": "%"}, {"measurement": "inhibition", "setting": "[8]", "value": "Active"}, {"measurement": "remaining at 1 h, 1 µM", "setting": "[9]", "value": 41.8, "unit": "%"}, {"measurement": "inhibition", "setting": "[10]", "value": "inactive"}, {"measurement": "inhibition", "setting": "[11]", "value": 69, "unit": "%"}, {"measurement": "inhibition", "setting": "[12]", "value": 89, "unit": "%"}, {"measurement": "fraction unbound at 4 h, 1 µM", "setting": "[13]", "value": 0.025}, {"measurement": "inhibition", "setting": "[14]", "value": 27, "unit": "%"}, {"measurement": "inhibition", "setting": "[15]", "value": "inactive"}, {"measurement": "fraction unbound at 4 h, 10 µM", "setting": "[16]", "value": 0.023}, {"measurement": "inhibition", "setting": "[17]", "value": "inactive"}, {"measurement": "fraction unbound at 4 h, 10 µM", "setting": "[18]", "value": 0.045}, {"measurement": "CC50 at 24 h", "setting": "[19]", "value": "> 50", "unit": "µM"}, {"measurement": "Activity", "setting": "[20]", "value": "Non-toxic"}, {"measurement": "IC50", "setting": "[21]", "value": "> 20", "unit": "µM"}, {"measurement": "concentration at 2 h", "setting": "[22]", "value": "< 500", "unit": "ng/mL"}, {"measurement": "inhibition", "setting": "[23]", "value": 23, "unit": "%"}, {"measurement": "remaining at 3 h, 1 µM", "setting": "[24]", "value": 100, "unit": "%"}, {"measurement": "concentration at 20 min", "setting": "[25]", "value": 5500, "unit": "ng/mL"}, {"measurement": "remaining at 1 h, 1 µM", "setting": "[26]", "value": 0.8, "unit": "%"}, {"measurement": "inhibition", "setting": "[27]", "value": "inactive"}, {"measurement": "fraction unbound at 4 h, 1 µM", "setting": "[28]", "value": 0.05}, {"measurement": "inhibition", "setting": "[29]", "value": 21, "unit": "%"}]}
